Literature values in US20180169172A1, “COMPOUND AND METHOD FOR REDUCING APPETITE, FATIGUE AND PAIN” (priority 2018, published 2018).
Read-outs that look alike come from different tables or passages of the source.

Key:
[1] = system: mice; details: even upon oral administration
[2] = target: μ-subtype opioid receptor (MOR) (Homo sapiens, UniProt P35372)
[3] = system: gastrointestinal transit; details: subcutaneous, mice
[4] = microplate reader determination
[5] = not given; remark: listed apart in the source
[6] = not given; remark: listed apart in the source
[7] = not given; remark: listed apart in the source
[8] = system: rodents; details: dose levels of 800-900 mg/kg in rodents
[9] = system: rats; details: 200 mg/kg in rats; mitragynine given orally
[10] = system: Kratom users; details: even after chronic and high dosage consumption
[11] = system: animal; details: animal studies, versus codeine
[12] = system: skeletal muscle; details: rat, in vivo
[13] = system: compound nerve action potential; details: 2 mg/mL
[14] = system: gastric acid secretion
[15] = system: pain; details: by mouth, immediate-release formulation
[16] = nine subjects, oral Kratom tea, loading dose

Sequence of μ-subtype opioid receptor (MOR) (P35372 whole entry): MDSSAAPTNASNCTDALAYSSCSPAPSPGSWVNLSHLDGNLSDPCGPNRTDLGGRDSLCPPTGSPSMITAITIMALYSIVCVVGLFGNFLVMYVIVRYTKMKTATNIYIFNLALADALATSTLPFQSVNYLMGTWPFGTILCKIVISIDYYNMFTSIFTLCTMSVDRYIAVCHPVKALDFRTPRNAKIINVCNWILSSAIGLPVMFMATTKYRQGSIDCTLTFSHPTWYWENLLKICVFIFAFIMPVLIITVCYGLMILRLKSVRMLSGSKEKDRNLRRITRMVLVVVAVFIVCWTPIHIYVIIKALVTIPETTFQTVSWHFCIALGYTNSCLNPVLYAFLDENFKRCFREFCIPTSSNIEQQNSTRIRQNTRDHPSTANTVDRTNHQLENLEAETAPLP

Compound: CC[C@@H]1CN2CC[C@@]3(O)C(=Nc4cccc(OC)c43)[C@@H]2C[C@@H]1/C(=C\OC)C(=O)OC [7-hydroxymitragynine, (αE,2S,3S,7aS,12bS)-3-ethyl-1,2,3,4,6,7,7a,12b-octahydro-7a-hydroxy-8-methoxy-α-(methoxymethylene)-indolo [2,3-a]quinolizine-2-acetic acid methyl ester]
- analgesic potency relative to morphine [1]: several times more potent analgesic than morphine
- agonism at μ-subtype opioid receptor [2]: selective and full agonists
- gastrointestinal transit [3]: caused an inhibition

Compound: CC[C@@H]1CN2CCc3c([nH]c4cccc(OC)c34)[C@@H]2C[C@@H]1/C(=C\OC)C(=O)OC [mitragynine, (αE,2S,3S,12bS)-3-ethyl-1,2,3,4,6,7,12,12b-octahydro-8-methoxy-α-(methoxymethylene)-indolo[2,3-a]quinolizine-2-acetic acid methyl ester]
- pKa [4]: 8.08±0.04
- logP: 1.73
- stability in acid ([5]; acidic environments): acid labile
- water solubility ([5]; water): < 100 µg/mL
- solubility ([5]; water and basic media): poor solubility in water and basic media
- total drug release in dissolution ([6]; simulated gastric fluid (SGF)): higher
- total drug release in dissolution ([6]; simulated intestinal fluid (SIF)): prolonged and incomplete
- urine excretion of unchanged form ([7]; 24-hour period): 0.14%
- apparent volume of distribution [7, 16]: 38.04 ± 24.32 L/kg
- terminal half-life [7, 16]: 23.24 ± 16.07 h
- time to reach the maximum plasma concentration [7, 16]: 0.83 ± 0.35 h
- toxicity [8]: no toxicity
- lethality [9]: lethal effects
- mortalities following consumption alone [10]: no reports of mortalities
- agonism at μ-subtype opioid receptor [2]: selective and full agonists
- antinociceptive effect [11]: comparable to those of codeine
- cough-suppressant effect [11]: comparable to those of codeine
- skeletal muscle relaxation [12]: produced skeletal muscle relaxation
- nerve conduction, amplitude and duration of compound nerve action potential [13]: blocked
- 2-deoxy-D-glucose-stimulated gastric acid secretion ([14]; administration into fourth ventricle of anesthetized rats, reversed by naloxone): inhibition
- basal gastric acid secretion ([14]; administration into the lateral ventricle): did not alter

Compound: COc1cccc(C2(O)CCCCC2CN(C)C)c1 (stereo not shown) [Tramadol, tramadol]
- onset of pain relief [15]: within an hour
